Reference: PubChem BioAssay (NCI)
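Step 1: Grow cells in 96-well plates. Step 2: Expose to compound for 48 hours at 5 concentrations. Step 3: Interpolate endpoints linearly; if unreached, use highest concentration. The concentration for full growth arrest is given as TGI.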 Where a SMILES comes first, the peptide text is derived from it. The star is where a group is joined. Boc = CC(C)(C)OC(=O)*

How the values were obtained:
Assay in all cases: NCI tumour cell line growth inhibition, 48 h
A549 NSCLC = tested on: A549 NSCLC
MDA-N = tested on: MDA-N
SNB-19 CNS = tested on: SNB-19 CNS
LOX IMVI melanoma = tested on: LOX IMVI melanoma
DU-145 prostate = tested on: DU-145 prostate
NCI-H226 lung = tested on: NCI-H226 lung
PC-3 prostate = tested on: PC-3 prostate
HCT-15 colon = tested on: HCT-15 colon
NCI-H460 lung = tested on: NCI-H460 lung
SK-MEL-2 melanoma = tested on: SK-MEL-2 melanoma
CAKI-1 renal = tested on: CAKI-1 renal
HL-60(TB) leukemia = tested on: HL-60(TB) leukemia
SF-295 CNS = tested on: SF-295 CNS
HT29 colon = tested on: HT29 colon
T-47D breast = tested on: T-47D breast
RXF 393 renal = tested on: RXF 393 renal
NCI/ADR-RES ovarian = tested on: NCI/ADR-RES ovarian
IGROV1 ovarian = tested on: IGROV1 ovarian

Row | SMILES | TGI (A549 NSCLC) [µM] | TGI (MDA-N) [µM] | TGI (SNB-19 CNS) [µM] | TGI (LOX IMVI melanoma) [µM] | TGI (DU-145 prostate) [µM] | TGI (NCI-H226 lung) [µM] | TGI (PC-3 prostate) [µM] | TGI (HCT-15 colon) [µM] | TGI (NCI-H460 lung) [µM] | TGI (SK-MEL-2 melanoma) [µM] | TGI (CAKI-1 renal) [µM] | TGI (HL-60(TB) leukemia) [µM] | TGI (SF-295 CNS) [µM] | TGI (HT29 colon) [µM] | TGI (T-47D breast) [µM] | TGI (RXF 393 renal) [µM] | TGI (NCI/ADR-RES ovarian) [µM] | TGI (IGROV1 ovarian) [µM]
1 | C=C[C@]1(C)CC(=O)C(C(C)C=O)[C@]12C(=O)Oc1cccc(C)c1C2=O (some centres undefined) | 44.4 | 27.6 | 24.6 | 27.5 | 30.6 | 35 | 26.3 | 28.3 | 30.5 | 32.4 | 27.6 | 32.3 | 28.9 | 27.6 | 34.1 | 27.6 | – | –
2 | COC(=O)CN=C1NC(=S)N(Cc2ccc(OC)cc2)C12CCCC2 | > 100 | > 100 | > 100 | – | > 100 | > 100 | > 100 | > 100 | > 100 | > 100 | > 100 | – | > 100 | > 100 | > 100 | > 100 | > 100 | –
3 | CCCCCCCCCC(=O)NCCc1c[nH]c2ccc(OC)cc12 | 40.1 | 35.5 | 31.2 | 27.6 | 42.1 | 42.1 | 28.9 | 36.2 | 50.1 | 30.5 | 65.6 | – | 32 | > 100 | 54 | 38 | 38.4 | 30
4 | CCN(CC)C(=S)/N=C(\SC(=S)N(CC)CC)c1ccccc1 | > 100 | > 73.2 | > 100 | 36.1 | > 87.9 | > 100 | > 100 | > 100 | > 100 | > 100 | > 100 | – | > 100 | > 100 | > 100 | > 100 | > 100 | > 100
5 | COC(O)C(=O)c1c2c(cc3c1CCC3)CCC2 (centres undefined) | > 100 | > 100 | > 100 | > 100 | > 100 | > 100 | > 100 | > 100 | > 100 | > 100 | > 100 | 79.9 | > 100 | > 100 | > 100 | – | > 100 | > 100
6 | COc1ccc(C(OC(=O)[C@H](O[Si](C)(C)C(C)(C)C)[C@@H](NC(=O)c2ccccc2)c2ccccc2)c2ccc(OC)cc2)cc1 | > 100 | > 100 | > 100 | > 100 | > 100 | > 100 | > 100 | > 100 | > 100 | > 100 | > 100 | – | > 100 | > 100 | > 100 | > 100 | > 100 | > 100
7 | COc1ccc2nc3c(C)cc4ccccc4n3c2c1 | > 100 | > 100 | > 100 | – | > 100 | > 100 | > 100 | > 100 | > 100 | – | – | > 100 | > 100 | > 100 | > 100 | > 100 | > 100 | > 100
8 | COc1ccc(-c2[nH]c(-c3ccc(OC)cc3)c(-c3ccccn3)c2-c2ccccn2)cc1 | > 100 | > 100 | > 100 | 65.5 | > 100 | > 100 | > 100 | > 100 | > 100 | – | > 100 | > 100 | > 100 | 49.3 | > 100 | > 100 | > 100 | > 100
9 | CCCC(=O)N(C)N=Nc1ccc(C(=O)OCC)cc1 | > 100 | > 100 | > 100 | > 100 | > 100 | > 100 | > 100 | > 100 | > 100 | > 100 | > 100 | > 100 | > 100 | > 100 | > 100 | > 100 | – | > 100
10 | CC(NC(=O)C1CCCN1C(=O)CNC(=O)OC(C)(C)C)C(=O)O (stereo not drawn) (Boc-Gly-Pro-Ala-OH; configuration not given here) | > 100 | > 100 | > 100 | – | > 100 | > 100 | > 100 | > 100 | > 100 | > 100 | > 100 | – | > 100 | > 100 | > 100 | > 100 | > 100 | > 100
11 | CC(O)CC(=O)CO[C@H]1[C@H](O)[C@@H](O)[C@@H](O)[C@@H]2NC(=O)c3c(cc4c(c3O)OCO4)[C@H]21 (some centres undefined) | 0.352 | 0.446 | 0.0754 | 0.117 | 0.0818 | 1.49 | 0.303 | – | 0.188 | 0.261 | – | 0.2 | 0.314 | 0.179 | 0.109 | 0.131 | 27.6 | 0.256
12 | Cc1occc1C(=S)Nc1ccc(Cl)c(C(=O)OCC(C)C)c1 | 42.4 | 47.8 | 31.2 | 28.6 | 39.8 | 30.4 | 38.7 | 36.1 | 44.9 | 40.2 | 37.8 | 79.5 | 33.2 | 26.3 | 34.3 | – | 28.6 | 34.5
13 | Cc1ccc(C(=O)O)c(/C=C2\Cc3cc(C)cc(C)c3C2=O)c1 | > 100 | > 100 | > 100 | > 100 | > 100 | > 100 | > 100 | > 100 | > 100 | > 100 | > 100 | > 100 | > 100 | > 100 | > 100 | > 100 | – | > 100
